Measurements as given in patent US20190328857A1, “CALR AND JAK2 VACCINE COMPOSITIONS” (IO Biotech ApS, priority 2016, published 2019).

Tested on: CALRLong1-specific T-cells
Experiment: Intracellular cytokine staining of CALRLong1-specific T-cell culture stimulated with peptide
Format: cell-based, human
Protocol: Fresh PBMCs were first enriched for CD14+ cells using MACS CD14 MicroBeads (Miltenyi Biotech GmbH, Bergisch Gladbach, Germany). This was considered day 0. The resulting monocyte-depleted cell culture was termed peripheral blood lymphocytes (PBL). The enriched cells were cultured using CellGro (CellGenix GmbH, Freiburg, Germany), and stimulated with GM-CSF (1000 U/ml) and IL-4 (250 U/ml) (both PeproTech, Rocky Hill, N.J., USA). The next day, to generate fast dendritic cells (fastDC), we treated half of the enriched cells with a maturation cocktail comprising IFN-γ (1000 U/ml) (PeproTech, Rocky Hill, N.J., USA), PolyI:C (20 μg/ml) (Sigma-Aldrich, St. Louis, Mo., USA) and CALRLong1 peptide. PBL were cultured overnight in X-VIVO medium (Lonza Group Ltd., Basel, Switzerland) and then stimulated with half of the fastDC. The other half of the fastDC were frozen for later use.
The other half of the enriched cells were cultured until day 7, at which time these cells were treated with the same maturation cocktail as above, to generate mature dendritic cells (mDC). The next day, these mDC were used to stimulate PBLs. On day 9, IL-2 (120 U/mL) (Novartis, Basel, Switzerland) and IL-7 (40 U/ml) (PeproTech, Rocky Hill, N.J., USA) was added. On day 14, we thawed the fastDC that had been frozen on day 2, and used these cells to stimulate the PBL. On day 16 and day 24 we added, IL-2 and IL-7 in the concentrations mentioned above.
At day 38 of the T-cell culture, we stimulated the T-cells with CALRLong1 peptide for 4 h and next isolated IFN-γ secreting cells using the MACS IFN-γ secretion assay. The isolated cells were expanded using a rapid expansion protocol. The vast majority of cells that reacted to CALRLong1 peptide stimulation were CD4^+ T-cells; thus, we isolated CD4^+ T cells from the REP culture using the EasySep Human CD4 isolation Kit (StemCell Technologies, Inc., Vancouver, BC, Canada). The enriched CD4^+ T-cells were then cloned by limiting dilution, and growing T-cell clones were rapidly expanded using feeder cells and high dose IL-2 (6000 u/ml). T-cell receptor clonotyping of the cloned cells was performed by denaturing gradient gel electrophoresis as previously described.
Frozen T-cells were thawed one day prior to assaying, and in experiments examining CD107a expression, a CD107a-PE antibody was added to cells directly after addition of peptide or target cells. After one hour of stimulation, protein-transport inhibitor Brefeldin A (BD Biosciences, San Jose, Calif., USA) was added to the cells which were then stimulated for four h. Cells were stained with CD3-APC-H7, CD4-FITC, CD8-PerCP, IFN-γ-APC, TNF-α-BV421 and Fixable Viability Stain 510 (BD Biosciences, San Jose, Calif., USA), permeabilized and washed with Permeabilization Reagent/Diluent and fixation-permeabilization buffer (AH Diagnostics, Aarhus, Denmark). Cells were acquired with a FACS Canto II (BD Biosciences) and analyzed using FACSDiva software. All effector cell stimulations were run in triplicate wells if not otherwise specified.

[1] = after three stimulations with autologous dendritic cells

RRMMRTKMRMRRMRRTRRKMRRKMSPARP (listed as Homo sapiens) [CALRLong1]
specificity of cloned CD4^+ T-cell culture for the peptide (ICS): 100%
CD4^+ T cells that responded against the peptide (after IFN-γ enrichment of the bulk culture): ~40%
response of CD4^+ T cells of the CALRLong1 bulk culture to peptide stimulation [1]: responded
response of CD8^+ T cells of the CALRLong1 culture to peptide stimulation [1]: no response
CD107a expression on CD4^+ CALRLong1-specific T-cells (stimulation with B-cells pulsed with peptide versus scrambled control): upregulated
CD4^+ T-cells in the bulk culture that upregulate CD107a (stimulation with peptide): minor fraction
recognition of peptide-pulsed autologous B-cells by the specific T cells (versus scrambled control peptide): widely recognized
